Laboratory results from patent publication US9296704B2, “Substituted pyrimidines as protein kinase inhibitors” (CELGENE AVILOMICS RESEARCH, INC., priority 2007, dated 2016).

Legend:
BTK = BTK (Homo sapiens, UniProt Q06187); assay: Omnia assay for potency against BTK; type: biochemical; conditions: read-out: BTK Inhibition
How it was run: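 BTK (5 nM) was pre-incubated 30 min at 27° C with serially diluted compounds in Tris pH 7.5/MgCl2 buffer, then started with […] and Y5-Sox peptide 10 mM (ATP KMapp ~36 mM). Fluorescence (ex360/em485) was read continuously over 60 min. IC50 came from initial velocities using a variable-slope fit.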

ErbB1 = ErbB1 (Homo sapiens, UniProt P00533); assay: Z'-LYTE biochemical assay, ErbB1 kinase inhibition; conditions: for inhibition at 0.01 µM: @ 10 nM; for inhibition at 0.1 µM: @ 100 nM
Description: (§1) Compounds of the present invention were assayed as inhibitors of one or more of ErbB1, ErbB2, and/or ErbB4 in a manner substantially similar to the method described by Invitrogen Corp (Invitrogen Corporation, 1600 Faraday Avenue, Carlsbad, Calif., CA; http://www.invitrogen.com/downloads/Z-LYTE_Brochure—1205.pdf) using the Z′-LYTE™ biochemical assay procedure or similar biochemical assay. The Z′-LYTE™ biochemical assay employs a fluorescence-based, coupled-enzyme format and is based on the differential sensitivity of phosphorylated and non-phosphorylated peptides to proteolytic cleavage.

ErbB4 = ErbB4 (Homo sapiens, UniProt Q15303); assay: Z'-LYTE biochemical assay, ErbB4 kinase inhibition; conditions: @ 1 μM
Description: as §1

JAK3 = target: T1, JAK3 (Homo sapiens, UniProt P52333); assay: Omnia assay for potency against JAK3; type: biochemical; conditions: read-out: JAK3 Inhibition
T1 sequence (P52333 1-1124): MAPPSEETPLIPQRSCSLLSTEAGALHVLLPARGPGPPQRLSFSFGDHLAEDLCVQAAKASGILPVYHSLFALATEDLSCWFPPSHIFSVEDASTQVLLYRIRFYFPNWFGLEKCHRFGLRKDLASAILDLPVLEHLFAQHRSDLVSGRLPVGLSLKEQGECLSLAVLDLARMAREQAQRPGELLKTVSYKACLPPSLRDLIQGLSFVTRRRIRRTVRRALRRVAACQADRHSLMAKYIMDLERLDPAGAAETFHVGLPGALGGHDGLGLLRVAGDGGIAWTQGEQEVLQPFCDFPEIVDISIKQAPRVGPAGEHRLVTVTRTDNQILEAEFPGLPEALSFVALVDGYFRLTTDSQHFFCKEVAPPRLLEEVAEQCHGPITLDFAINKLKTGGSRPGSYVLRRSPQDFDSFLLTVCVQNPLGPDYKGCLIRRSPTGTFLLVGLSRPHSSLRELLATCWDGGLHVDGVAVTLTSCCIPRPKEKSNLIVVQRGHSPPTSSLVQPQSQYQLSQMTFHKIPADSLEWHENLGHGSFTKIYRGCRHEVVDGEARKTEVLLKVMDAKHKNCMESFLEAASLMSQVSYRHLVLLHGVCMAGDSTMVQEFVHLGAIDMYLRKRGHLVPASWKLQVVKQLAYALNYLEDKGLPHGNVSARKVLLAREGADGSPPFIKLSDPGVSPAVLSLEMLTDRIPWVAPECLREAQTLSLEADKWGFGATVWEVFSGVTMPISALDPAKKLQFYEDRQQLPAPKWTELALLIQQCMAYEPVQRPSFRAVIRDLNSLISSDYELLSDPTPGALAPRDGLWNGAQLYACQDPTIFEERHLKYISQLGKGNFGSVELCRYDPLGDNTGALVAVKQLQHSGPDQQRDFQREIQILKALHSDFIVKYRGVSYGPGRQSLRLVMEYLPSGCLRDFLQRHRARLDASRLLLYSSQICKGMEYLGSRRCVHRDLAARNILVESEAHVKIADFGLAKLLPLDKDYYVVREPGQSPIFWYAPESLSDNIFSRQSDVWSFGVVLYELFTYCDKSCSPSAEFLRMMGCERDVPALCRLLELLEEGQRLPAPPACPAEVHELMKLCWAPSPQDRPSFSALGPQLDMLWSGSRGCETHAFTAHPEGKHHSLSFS
How it was run: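 Continuous-read Omnia kinase assay with 5 nM JAK3, 5 μM ATP (near apparent Km) and 5 μM Y12-Sox peptide in Tris pH 7.5/MgCl2 buffer; enzyme pre-incubated with compound 30 min at 27 °C. Fluorescence (ex360/em485) read over 60 min; initial velocities fitted against inhibitor concentration to give IC50.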

EGFR (WT) = target: T2, EGFR (WT) (Homo sapiens, UniProt P00533); assay: Omnia continuous-read kinase assay, EGFR (WT); type: biochemical; conditions: read-out: EGFR inhibtion
T2 construct: purchased Invitrogen PV3872
How it was run: (§2)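 Enzyme pre-incubated 30 min at 27 °C with compound, then ATP/Y12-Sox peptide added; fluorescence (ex360/em485) read continuously 60 min in 20 mM Tris pH 7.5, 5 mM MgCl2, 0.2 mM DTT. WT: 5 nM enzyme, […]; T790M/L858R: 3 nM enzyme, […]. IC50 from initial velocities, variable-slope fit.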

ErbB2 = ErbB2 (Homo sapiens, UniProt P04626); assay: Z'-LYTE biochemical assay, ErbB2 kinase inhibition
Description: as §1

EGFR (T790M/L858R) = target: T3, EGFR (T790M/L858R) (Homo sapiens, UniProt P00533, L858R/T790M); assay: Omnia continuous-read kinase assay, EGFR (T790M/L858R); type: biochemical; conditions: read-out: EGFR (T790M/L858R) inhibiton
T3 construct: purchased BPS Bioscience 40350
How it was run: as §2

ITK = target: T4, ITK (Homo sapiens, UniProt Q08881); assay: Omnia assay for potency against ITK; type: biochemical; conditions: read-out: ITK inhibition
T4 sequence (Q08881 1-620): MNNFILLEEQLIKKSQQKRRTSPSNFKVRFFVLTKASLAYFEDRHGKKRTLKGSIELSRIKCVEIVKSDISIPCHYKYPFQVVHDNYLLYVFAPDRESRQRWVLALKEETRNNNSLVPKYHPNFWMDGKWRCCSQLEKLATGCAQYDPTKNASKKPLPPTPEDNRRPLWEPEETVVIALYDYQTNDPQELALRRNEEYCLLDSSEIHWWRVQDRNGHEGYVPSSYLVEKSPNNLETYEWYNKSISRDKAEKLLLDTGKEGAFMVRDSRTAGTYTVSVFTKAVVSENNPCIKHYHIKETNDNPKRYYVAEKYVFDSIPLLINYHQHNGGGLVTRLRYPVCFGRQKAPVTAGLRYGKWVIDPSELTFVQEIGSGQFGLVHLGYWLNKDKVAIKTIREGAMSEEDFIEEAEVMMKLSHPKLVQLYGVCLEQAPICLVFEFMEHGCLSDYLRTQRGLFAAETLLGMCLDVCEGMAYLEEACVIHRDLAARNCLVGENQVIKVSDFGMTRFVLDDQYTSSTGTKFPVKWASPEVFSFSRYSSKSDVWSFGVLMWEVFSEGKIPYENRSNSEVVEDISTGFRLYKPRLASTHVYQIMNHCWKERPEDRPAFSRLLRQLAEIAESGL
Text: The protocol below describes continuous-read kinase assays to measure inherent potency of compounds against active forms of EGFR (WT) and EGFR (T790M/L858R) enzymes. The mechanics of the assay platform are best described by the vendor (Invitrogen, Carlsbad, Calif.) on their website at the following URL: http://www.invitrogen.com/content.cfm?pageid=11338 or http://www.invitrogen.com/site/us/en/home/Products-and-Services/Applications/Drug-Discovery/Target-and-Lead-Identification-and-Validation/KinaseBiology/KB-Misc/Biochemical-Assays/Omnia-Kinase-Assays.html.
Briefly, 10× stocks of EGFR-WT (PV3872) from Invitrogen and EGFR-T790M/L858R (40350) from BPS Bioscience, San Diego, Calif., 1.13×ATP (AS001A) and appropriate Tyr-Sox conjugated peptide substrates (KCZI001) were prepared in 1× kinase reaction buffer consisting of 20 mM Tris, pH 7.5, 5 mM MgCl2, 1 mM EGTA, 5 mM β-glycerophosphate, 5% glycerol (10× stock, KB002A) and 0.2 mM DTT (DS001A). 5 μL of each enzyme were pre-incubated in a Corning (#3574) 384-well, white, non-binding surface microtiter plate (Corning, NY) for 30 min. at 27° C. with a 0.5 μL volume of 50% DMSO and serially diluted compounds prepared in 50% DMSO. Kinase reactions were started with the addition of 45 μL of the ATP/Tyr-Sox peptide substrate mix and monitored every 30-90 seconds for 60 minutes at λex360/λem485 in a Synergy^4 plate reader from BioTek (Winooski, Vt.). At the conclusion of each assay, progress curves from each well were examined for linear reaction kinetics and fit statistics (R^2, 95% confidence interval, absolute sum of squares). Initial velocity (0 minutes to ˜30 minutes) from each reaction was determined from the slope of a plot of relative fluorescence units vs time (minutes) and then plotted against inhibitor concentration to estimate IC50 from log [Inhibitor] vs Response, Variable Slope model in GraphPad Prism from GraphPad Software (San Diego, Calif.).
This example describes continuous-read kinase assays to measure inherent potency of compound against active forms of ITK enzymes as described in Example 10 above except that the modified ITK-optimized reagent conditions are: • [ITK]=10 nM, [ATP]=25 μM, [Y6-Sox]=10 μM (ATP KMapp=33 μM).

[1] = tested on: BTK signaling in Ramos cells; assay: BTK Ramos cellular assay (PLCγ2 phosphorylation); type: cell-based; conditions: Homo sapiens; Ramos cells, PLCγ2 phosphorylation; read-out: BTK Inhibition
Description: Compounds 1-13 and (I-52) were assayed in Ramos human Burkitt lymphoma cells. Ramos cells were grown in suspension in T225 flasks, spun down, resuspended in 50 mls serum-free media and incubated for 1 hour. Compound was added to Ramos cells in serum free media to a final concentration of 1, 0.1, 0.01, or 0.001 μM. Ramos cells were incubated with compound for 1 hour, washed again and resuspended in 100 ul serum-free media. Cells were then stimulated with 1 μg of goat F(ab′)2 Anti-Human IgM and incubated on ice for 10 minutes to activate B cell receptor signaling pathways. After 10 minutes, the cells were washed once with PBS and then lysed on ice with Invitrogen Cell Extraction buffer. 16 μg total protein from lysates was loaded on gels and blots were probed for phosphorylation of the BTK substrate PLCγ2. […] Additional dose response inhibition of BTK signaling with I-13 is depicted in FIG. 9.

T3 sequence (P00533 25-1210 T790M/L858R): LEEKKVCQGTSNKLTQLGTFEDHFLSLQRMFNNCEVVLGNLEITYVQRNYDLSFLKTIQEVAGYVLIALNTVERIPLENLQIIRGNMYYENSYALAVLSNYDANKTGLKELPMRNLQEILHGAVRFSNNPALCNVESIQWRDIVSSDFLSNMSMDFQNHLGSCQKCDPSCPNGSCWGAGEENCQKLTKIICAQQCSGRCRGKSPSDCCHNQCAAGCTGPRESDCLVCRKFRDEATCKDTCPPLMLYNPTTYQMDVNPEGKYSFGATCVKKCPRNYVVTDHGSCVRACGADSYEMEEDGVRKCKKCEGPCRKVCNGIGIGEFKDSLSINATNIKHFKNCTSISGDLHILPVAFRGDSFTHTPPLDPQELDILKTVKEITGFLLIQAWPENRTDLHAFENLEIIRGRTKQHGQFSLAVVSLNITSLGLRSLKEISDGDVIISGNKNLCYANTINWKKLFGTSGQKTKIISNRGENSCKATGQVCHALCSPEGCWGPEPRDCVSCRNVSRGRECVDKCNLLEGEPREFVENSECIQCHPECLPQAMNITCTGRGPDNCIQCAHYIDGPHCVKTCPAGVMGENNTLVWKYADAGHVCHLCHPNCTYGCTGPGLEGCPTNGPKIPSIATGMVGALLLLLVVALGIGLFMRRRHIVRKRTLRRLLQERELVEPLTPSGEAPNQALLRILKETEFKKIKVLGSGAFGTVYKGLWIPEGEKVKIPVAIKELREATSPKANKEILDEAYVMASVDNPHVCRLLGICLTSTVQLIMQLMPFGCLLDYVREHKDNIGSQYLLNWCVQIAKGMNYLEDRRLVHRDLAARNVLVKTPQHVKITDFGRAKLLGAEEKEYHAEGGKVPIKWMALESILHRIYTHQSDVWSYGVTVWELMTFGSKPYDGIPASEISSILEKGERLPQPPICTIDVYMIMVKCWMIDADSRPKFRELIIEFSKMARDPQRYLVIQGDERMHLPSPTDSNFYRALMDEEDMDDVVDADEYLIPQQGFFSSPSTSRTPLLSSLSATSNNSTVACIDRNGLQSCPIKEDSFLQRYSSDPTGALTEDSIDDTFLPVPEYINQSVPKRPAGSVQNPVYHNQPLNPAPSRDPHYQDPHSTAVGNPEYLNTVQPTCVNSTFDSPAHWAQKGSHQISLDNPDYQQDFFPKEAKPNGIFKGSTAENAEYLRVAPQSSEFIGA
Chain of ErbB2 (P04626 23-1255): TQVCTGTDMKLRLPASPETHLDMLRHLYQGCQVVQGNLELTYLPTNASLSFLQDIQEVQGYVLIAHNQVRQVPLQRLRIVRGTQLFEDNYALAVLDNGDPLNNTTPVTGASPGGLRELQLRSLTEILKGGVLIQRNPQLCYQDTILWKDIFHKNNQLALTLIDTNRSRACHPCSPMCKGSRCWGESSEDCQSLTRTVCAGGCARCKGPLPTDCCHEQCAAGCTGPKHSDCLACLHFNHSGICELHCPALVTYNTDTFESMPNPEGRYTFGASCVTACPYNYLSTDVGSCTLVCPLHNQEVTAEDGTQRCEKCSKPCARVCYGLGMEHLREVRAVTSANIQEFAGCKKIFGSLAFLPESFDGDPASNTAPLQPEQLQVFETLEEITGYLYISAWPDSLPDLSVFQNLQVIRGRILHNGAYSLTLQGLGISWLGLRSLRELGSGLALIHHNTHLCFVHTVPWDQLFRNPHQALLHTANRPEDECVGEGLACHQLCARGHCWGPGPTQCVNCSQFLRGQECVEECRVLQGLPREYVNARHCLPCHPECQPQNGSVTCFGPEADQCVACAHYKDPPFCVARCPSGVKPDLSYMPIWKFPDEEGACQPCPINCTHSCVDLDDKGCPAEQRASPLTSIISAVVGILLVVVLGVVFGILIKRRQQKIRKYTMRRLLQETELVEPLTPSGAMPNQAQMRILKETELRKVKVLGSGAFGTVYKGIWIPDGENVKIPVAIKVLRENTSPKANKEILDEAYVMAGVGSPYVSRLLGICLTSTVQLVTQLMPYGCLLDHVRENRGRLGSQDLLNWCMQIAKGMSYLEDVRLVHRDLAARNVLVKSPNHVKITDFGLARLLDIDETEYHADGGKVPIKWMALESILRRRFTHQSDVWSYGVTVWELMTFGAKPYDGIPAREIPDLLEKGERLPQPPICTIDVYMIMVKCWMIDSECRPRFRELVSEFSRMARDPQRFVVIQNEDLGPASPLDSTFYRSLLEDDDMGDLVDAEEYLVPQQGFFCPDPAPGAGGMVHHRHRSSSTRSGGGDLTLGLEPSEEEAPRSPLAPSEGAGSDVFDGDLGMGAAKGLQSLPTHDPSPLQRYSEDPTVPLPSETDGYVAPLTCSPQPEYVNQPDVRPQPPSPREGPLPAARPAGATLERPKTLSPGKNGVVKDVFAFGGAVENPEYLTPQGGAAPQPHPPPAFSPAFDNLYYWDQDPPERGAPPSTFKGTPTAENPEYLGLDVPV
Chain of ErbB4 (Q15303 26-1308): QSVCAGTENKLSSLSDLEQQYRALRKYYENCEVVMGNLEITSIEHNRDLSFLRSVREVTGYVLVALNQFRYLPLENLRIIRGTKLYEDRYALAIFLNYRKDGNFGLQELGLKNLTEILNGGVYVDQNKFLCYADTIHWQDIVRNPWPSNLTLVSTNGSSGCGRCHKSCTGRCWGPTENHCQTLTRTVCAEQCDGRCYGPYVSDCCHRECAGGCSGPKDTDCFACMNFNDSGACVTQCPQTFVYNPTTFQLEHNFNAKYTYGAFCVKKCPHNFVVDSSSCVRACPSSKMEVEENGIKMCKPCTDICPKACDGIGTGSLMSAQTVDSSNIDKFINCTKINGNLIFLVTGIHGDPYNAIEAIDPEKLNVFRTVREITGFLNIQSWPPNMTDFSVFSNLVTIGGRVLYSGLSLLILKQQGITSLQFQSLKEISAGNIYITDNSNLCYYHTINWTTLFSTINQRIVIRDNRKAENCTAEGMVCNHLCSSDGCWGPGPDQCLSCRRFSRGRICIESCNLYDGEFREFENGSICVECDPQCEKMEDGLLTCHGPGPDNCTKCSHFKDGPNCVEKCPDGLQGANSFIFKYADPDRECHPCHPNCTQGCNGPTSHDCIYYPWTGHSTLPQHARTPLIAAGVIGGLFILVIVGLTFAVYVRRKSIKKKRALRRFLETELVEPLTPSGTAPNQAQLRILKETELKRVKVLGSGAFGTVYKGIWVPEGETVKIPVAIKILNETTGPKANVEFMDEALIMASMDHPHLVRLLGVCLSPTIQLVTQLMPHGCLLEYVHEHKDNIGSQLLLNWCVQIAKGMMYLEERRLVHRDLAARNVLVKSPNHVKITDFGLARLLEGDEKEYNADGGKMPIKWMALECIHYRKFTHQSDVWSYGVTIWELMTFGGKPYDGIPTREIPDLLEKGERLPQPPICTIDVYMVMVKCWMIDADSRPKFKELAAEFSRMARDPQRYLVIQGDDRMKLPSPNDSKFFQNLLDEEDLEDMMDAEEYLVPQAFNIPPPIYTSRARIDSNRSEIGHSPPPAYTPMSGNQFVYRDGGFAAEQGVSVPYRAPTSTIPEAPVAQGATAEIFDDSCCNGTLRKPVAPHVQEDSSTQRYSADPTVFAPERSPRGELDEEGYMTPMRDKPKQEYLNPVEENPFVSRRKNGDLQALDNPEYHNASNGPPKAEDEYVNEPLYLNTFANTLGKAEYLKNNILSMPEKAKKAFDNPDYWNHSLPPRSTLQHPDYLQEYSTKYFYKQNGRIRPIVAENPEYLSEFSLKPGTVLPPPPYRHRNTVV
T2 sequence (P00533 25-1210): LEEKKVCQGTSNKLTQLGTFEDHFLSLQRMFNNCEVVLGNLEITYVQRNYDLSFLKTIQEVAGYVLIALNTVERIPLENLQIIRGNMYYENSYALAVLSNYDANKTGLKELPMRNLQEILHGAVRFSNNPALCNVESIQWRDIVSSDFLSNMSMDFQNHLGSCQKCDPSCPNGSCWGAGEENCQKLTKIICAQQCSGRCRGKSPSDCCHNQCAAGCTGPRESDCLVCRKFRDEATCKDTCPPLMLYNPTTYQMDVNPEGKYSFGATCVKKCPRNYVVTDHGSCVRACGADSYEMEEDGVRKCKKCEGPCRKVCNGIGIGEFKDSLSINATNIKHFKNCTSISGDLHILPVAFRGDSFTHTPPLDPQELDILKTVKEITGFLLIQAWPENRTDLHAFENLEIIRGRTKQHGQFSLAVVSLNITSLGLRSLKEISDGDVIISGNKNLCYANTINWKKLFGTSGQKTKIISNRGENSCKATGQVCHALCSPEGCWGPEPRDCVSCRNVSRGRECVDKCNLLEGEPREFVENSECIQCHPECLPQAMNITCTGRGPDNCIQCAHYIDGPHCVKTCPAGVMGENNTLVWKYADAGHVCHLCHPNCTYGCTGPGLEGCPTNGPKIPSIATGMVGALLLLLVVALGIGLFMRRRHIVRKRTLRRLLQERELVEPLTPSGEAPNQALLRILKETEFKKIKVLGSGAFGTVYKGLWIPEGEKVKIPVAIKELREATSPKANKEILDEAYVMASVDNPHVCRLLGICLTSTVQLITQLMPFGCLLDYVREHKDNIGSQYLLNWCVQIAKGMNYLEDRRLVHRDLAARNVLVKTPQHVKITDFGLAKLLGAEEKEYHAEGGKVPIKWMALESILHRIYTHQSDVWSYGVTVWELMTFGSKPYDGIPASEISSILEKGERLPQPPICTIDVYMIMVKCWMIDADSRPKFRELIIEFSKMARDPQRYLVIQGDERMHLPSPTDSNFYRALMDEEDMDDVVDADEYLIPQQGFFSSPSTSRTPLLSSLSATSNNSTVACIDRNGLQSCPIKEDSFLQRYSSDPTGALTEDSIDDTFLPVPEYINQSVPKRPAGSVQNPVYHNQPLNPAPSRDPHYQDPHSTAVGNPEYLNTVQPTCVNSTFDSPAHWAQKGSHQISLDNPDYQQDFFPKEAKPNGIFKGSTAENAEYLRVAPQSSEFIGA

SMILES | IC50 (BTK) [nM] | inhibition at 0.01 µM (ErbB1) [%] | inhibition at 0.1 µM (ErbB1) [%] | inhibition at 1 µM (ErbB4) [%] | IC50 (JAK3) [nM] | IC50 (EGFR (WT)) [nM] | inhibition at 0.1 µM (ErbB2; @ 100 nM) [%] | inhibition at 1 µM (ErbB2) [%] | IC50 (EGFR (T790M/L858R)) [nM] | inhibition at 1 µM (ErbB1; @ 1 μM) [%] | IC50 (ITK) [nM] | IC50 [1] [nM]
C=CC(=O)Nc1cccc(Nc2cc(Nc3ccc(F)c(Cl)c3)ncn2)c1 [I-2, N-{3-[6-(3-chloro-4-fluorophenylamino)-pyrimidin-4-ylamino]phenyl}-2-propenamide] | 10 to 100 | 75 | 98 | 75 | ≤ 10 | ≤ 10 | 39 | 96 | ≤ 10 | – | – | –
C=CS(=O)(=O)Nc1cccc(Nc2cc(Nc3ccc(F)c(Cl)c3)ncn2)c1 [I-3, N-{3-[6-(3-chloro-4-fluorophenylamino)-pyrimidin-4-ylamino]phenyl}-ethenesulfonamide] | 10 to 100 | 56 | 96 | 95 | ≤ 10 | ≤ 10 | – | 89 | ≤ 10 | – | – | –
C=CC(=O)Nc1cccc(Nc2cc(Nc3cccc(C)c3)ncn2)c1 [I-4, N-{3-[6-(3-methylphenylamino)-pyrimidin-4-ylamino]phenyl}-2-propenamide] | ≤ 10 | 100 | – | 78 | ≤ 10 | ≤ 10 | – | 86 | 10 to 100 | – | – | –
C=CC(=O)Nc1cccc(Nc2cc(Nc3ccc(OCc4cccc(F)c4)c(Cl)c3)ncn2)c1 [I-6, N-{3-[6-(3-chloro-4-(3-fluorophenyl)methoxyphenylamino)-pyrimidin-4-ylamino]phenyl}-2-propenamide] | 100 to 1000 | 49 | 100 | 97 | 1000 to 10000 | 10 to 100 | – | 84 | 10 to 100 | – | – | –
C/C=C/C(=O)Nc1cccc(Nc2cc(Nc3cccc(Br)c3)ncn2)c1 [I-8, (E)-N-(3-[6-(3-bromophenylamino)-pyrimidin-4-ylamino]-phenyl)-2-butenamide] | ≥ 10000 | 83 | – | 57 | 1000 to 10000 | ≤ 10 | – | – | 1000 to 10000 | – | – | –
C=CC(=O)Nc1cccc(Nc2cc(Oc3cccc(C(F)(F)F)c3)ncn2)c1 [I-9] | 100 to 1000 | – | – | 75 | 100 to 1000 | ≤ 10 | – | – | 100 to 1000 | 100 | – | –
CN(C)C/C=C/C(=O)Nc1cccc(Nc2cc(Nc3ccc(F)c(Cl)c3)ncn2)c1 [I-18, (E)-N-{3-[6-(3-chloro-4-fluorophenylamino)-pyrimidin-4-ylamino]phenyl}-4-dimethylamino-2-butenamide] | 10 to 100 | – | – | 94 | 10 to 100 | ≤ 10 | – | 91 | ≤ 10 | – | – | –
C=CC(=O)Nc1cc(Nc2cc(Oc3ccc(Oc4ccccc4)cc3)ncn2)cc(C(=O)N2CCOCC2)c1 [I-100, N-(3-(morpholine-4-carbonyl)-5-(6-(4-phenoxy)pyrimidin-4-ylamino)phenyl)acrylamide] | ≤ 10 | – | – | – | – | ≤ 10 | – | – | – | – | ≥ 10000 | 10 to 100
